Laboratory results from ChEMBL document CHEMBL5614416, “Discovery of novel thiophene[3,2-d]pyrimidine-based tubulin inhibitors with enhanced antitumor efficacy for combined use with anti-pd-l1 immunotherapy in melanoma” (Eur J Med Chem, 2024).
Calls of active or inactive are those of the source. No cut-off for these calls is given here.

Assays:
[1] = Toxicity in C57 mouse xenografted with mouse B16-F10 cells assessed as morphological abnormality in heart at 3.5 mg/kg, ip qd for 12 days in presence of NP-19 by H and E staining based analysis; format: organism-based; details: in vivo, 288 h, time 12 day
[2] = Toxicity in C57 mouse xenografted with mouse B16-F10 cells assessed as morphological abnormality in kidney at 7 mg/kg, ip qd for 12 days by H and E staining based analysis; format: organism-based; details: in vivo, 288 h, time 12 day
MCF7 [3] = experiment: Induction of apoptosis in human MCF7 cells assessed as increase in Bax level upto 30 nM incubated for 24 hrs by Western blot analysis; format: functional, cell-based
[4] = Toxicity in C57 mouse xenografted with mouse B16-F10 cells assessed as neutrophil count at 3.5 mg/kg, ip qd for 12 days in presence of NP-19 by biochemical analysis (reference value: 2.130 to 5.46 10^9/L); format: organism-based; details: in vivo, 288 h, time 12 day
B16-F10 [5] = experiment: Induction of cell cycle arrest in mouse B16-F10 cells assessed as accumulation of cells at G1 phase at 2 nM incubated for 12 hrs by flow cytometry (reference value: 52.0 %); format: functional
B16-F10 [6] = experiment: Induction of cell cycle arrest in mouse B16-F10 cells assessed as accumulation of cells at S phase at 1 nM incubated for 12 hrs by flow cytometry (reference value: 30.5 %); format: functional
[7] = Toxicity in C57 mouse xenografted with mouse B16-F10 cells assessed as eosinophil level at 7 mg/kg, ip qd for 12 days by biochemical analysis (reference value: 0.700 to 1.000 %); format: organism-based; details: in vivo, 288 h, time 12 day
B16-F10 [8] = experiment: Induction of apoptosis in mouse B16-F10 cells assessed as necrotic cells at 0.5 nM incubated for 12 hrs by Annexin V-FITC/PI staining based flow cytometry (reference value: 0.25 %); format: functional
MCF7 [9] = experiment: Inhibition of cell migration in human MCF7 cells assessed as migration rate at 1 nM incubated for 24 hrs by wound healing assay (reference value: 18.1 %); format: functional; set-up: scale not given: the % may be the effect or the level left
[10] = Toxicity in C57 mouse xenografted with mouse B16-F10 cells assessed as monocytes count at 3.5 mg/kg, ip qd for 12 days in presence of NP-19 by biochemical analysis (reference value: 0.080 to 0.610 10^9/L); format: organism-based; details: in vivo, 288 h, time 12 day
[11] = Toxicity in C57 mouse xenografted with mouse B16-F10 cells assessed as neutrophil count at 7 mg/kg, ip qd for 12 days by biochemical analysis (reference value: 2.130 to 5.46 10^9/L); format: organism-based; details: in vivo, 288 h, time 12 day
[12] = Toxicity in C57 mouse xenografted with mouse B16-F10 cells assessed as monocytes count at 7 mg/kg, ip qd for 12 days by biochemical analysis (reference value: 0.080 to 0.610 10^9/L); format: organism-based; details: in vivo, 288 h, time 12 day
B16-F10 [13] = experiment: Induction of apoptosis in mouse B16-F10 cells assessed as necrotic cells at 2 nM incubated for 12 hrs by Annexin V-FITC/PI staining based flow cytometry (reference value: 0.25 %); format: functional
B16-F10 [14] = experiment: Induction of cell cycle arrest in mouse B16-F10 cells assessed as accumulation of cells at G2 phase at 1 nM incubated for 12 hrs by flow cytometry (reference value: 13.6 %); format: functional
[15] = Toxicity in C57 mouse xenografted with mouse B16-F10 cells assessed as MCHC level at 7 mg/kg, ip qd for 12 days by biochemical analysis (reference value: 324.000 to 683.000 g/L); format: organism-based; details: in vivo, 288 h, time 12 day
[16] = Toxicity in C57 mouse xenografted with mouse B16-F10 cells assessed as WBC count at 3.5 mg/kg, ip qd for 12 days in presence of NP-19 by biochemical analysis (reference value: 8.240 to 8.340 10^9/L); format: organism-based; details: in vivo, 288 h, time 12 day
[17] = Toxicity in C57 mouse xenografted with mouse B16-F10 cells assessed as MPV level at 7 mg/kg, ip qd for 12 days by biochemical analysis (reference value: 6.200 to 15.000); format: organism-based; details: in vivo, 288 h, time 12 day
B16-F10 [18] = experiment: Induction of cell cycle arrest in mouse B16-F10 cells assessed as accumulation of cells at G1 phase at 0.5 nM incubated for 12 hrs by flow cytometry (reference value: 52.0 %); format: functional
B16-F10 [19] = experiment: Antiproliferative activity against mouse B16-F10 cells incubated for 48 hrs by MTT assay; format: functional, cell-based; details: B16-F10, 48 h
[20] = Toxicity in C57 mouse xenografted with mouse B16-F10 cells assessed as MCHC level at 3.5 mg/kg, ip qd for 12 days in presence of NP-19 by biochemical analysis (reference value: 324.000 to 683.000 g/L); format: organism-based; details: in vivo, 288 h, time 12 day
[21] = Toxicity in C57 mouse xenografted with mouse B16-F10 cells assessed as morphological abnormality in kidney at 3.5 mg/kg, ip qd for 12 days in presence of NP-19 by H and E staining based analysis; format: organism-based; details: in vivo, 288 h, time 12 day
B16-F10 [22] = experiment: Induction of apoptosis in mouse B16-F10 cells assessed as early apoptotic cells at 1 nM incubated for 12 hrs by Annexin V-FITC/PI staining based flow cytometry (reference value: 3.81 %); format: functional
[23] = Toxicity in C57 mouse xenografted with mouse B16-F10 cells assessed as morphological abnormality in heart at 7 mg/kg, ip qd for 12 days by H and E staining based analysis; format: organism-based; details: in vivo, 288 h, time 12 day
MCF7 [24] = experiment: Inhibition of cell migration in human MCF7 cells assessed as migration rate at 4 nM incubated for 24 hrs by wound healing assay (reference value: 18.1 %); format: functional; set-up: scale not given: the % may be the effect or the level left
B16-F10 [25] = experiment: Inhibition of cell migration in mouse B16-F10 cells assessed as migration rate at 2 nM incubated for 24 hrs by wound healing assay (reference value: 61.1 %); format: functional; set-up: scale not given: the % may be the effect or the level left
B16-F10 [26] = experiment: Induction of apoptosis in mouse B16-F10 cells assessed as necrotic cells at 1 nM incubated for 12 hrs by Annexin V-FITC/PI staining based flow cytometry (reference value: 0.25 %); format: functional
HepG2 = experiment: Antiproliferative activity against human HepG2 cells incubated for 48 hrs by MTT assay; format: functional, cell-based; details: HepG2, 48 h
B16-F10 [27] = experiment: Inhibition of cell migration in mouse B16-F10 cells assessed as reduction in wound closure incubated for 24 hrs by wound healing assay; format: functional, cell-based
B16-F10 [28] = experiment: Antitumor activity against mouse B16-F10 cells xenografted in C57 mouse at 3.5 mg/kg, ip qd for 12 days in presence of NP-19 relative to control; format: functional; details: B16-F10, 288 h, time 12 day, read-out: TGI
[29] = Toxicity in C57 mouse xenografted with mouse B16-F10 cells assessed as body weight change at 7 mg/kg, ip qd for 12 days; format: organism-based; details: in vivo, 288 h, time 12 day
[30] = Toxicity in C57 mouse xenografted with mouse B16-F10 cells assessed as PCT level at 7 mg/kg, ip qd for 12 days by biochemical analysis (reference value: 0.425 to 5.300); format: organism-based; details: in vivo, 288 h, time 12 day
MCF7 [31] = experiment: Inhibition of cell migration in human MCF7 cells assessed as migration rate at 2 nM incubated for 24 hrs by wound healing assay (reference value: 18.1 %); format: functional; set-up: scale not given: the % may be the effect or the level left
HCT-116 = experiment: Antiproliferative activity against human HCT-116 cells incubated for 48 hrs by MTT assay; format: functional, cell-based; details: HCT-116, 48 h
[32] = Inhibition of pig brain tubulin polymerization by spectrophotometric method

With Cc1nc(N(C)c2ccc3c(ccn3C)c2)c2sccc2n1 the Activity [1] was “Non-Toxic”, the Activity [2] was “Non-Toxic” and the Activity (MCF7 [3]) was “Active”. For the same compound, the Activity [4] was 1.38 10^9/L, the Activity (B16-F10 [5]) was 5.24% and the Activity (B16-F10 [6]) was 22.3%. The Activity [7] was 0.3%, the Activity (B16-F10 [8]) was 1.44% and the Activity (MCF7 [9]) was 15.7%. For the same compound, the Activity [10] was 0.06 10^9/L, the Activity [11] was 0.85 10^9/L and the Activity [12] was 0.01 10^9/L. It also gave an Activity (B16-F10 [13]) of 1.76%, an Activity (B16-F10 [14]) of 61.9% and an Activity [15] of 322 g/L. The Activity [16] was 4.22 10^9/L, the Activity [17] was 6 and the Activity (B16-F10 [18]) was 21.3%. The IC50 (B16-F10 [19]) was 11.7 nM, the Activity [20] was 343 g/L and the Activity [21] was “Non-Toxic”. For the same compound, the Activity (B16-F10 [22]) was 11%, the Activity [23] was “Non-Toxic” and the Activity (MCF7 [24]) was 3.23%. It also gave an Activity (B16-F10 [25]) of 34.6%, an Activity (B16-F10 [26]) of 4.4% and an IC50 (HepG2) of 9.37 nM. For the same compound, the inhibition (B16-F10 [27]) was “Dose-Dependent Effect”, the inhibition in vivo at 3.5 mg/kg (B16-F10 [28]) was 75.7% and the Activity [29] was “Non-Toxic”. It also gave an Activity [30] of 0.329, an Activity (MCF7 [31]) of 8.84% and an IC50 (HCT-116) of 0.38 nM. The IC50 [32] was 2540 nM.
